The test system of the experiment is MV-4-11 cells. Nature of the experiment: Gene expression microarray analysis (Affymetrix PrimeView) and GSEA. It counts as cell-based, human. Details: RFU PODN (11730768_x_at) / Fold change /veh PODN (11730768_x_at) / RFU LINC00158 (11744669_a_at) / Fold change /veh LINC00158 (11744669_a_at) / RFU DUSP10 (11751237_a_at) / Fold change /veh DUSP10 (11751237_a_at) / RFU ID3 (11757404_x_at) / Fold change /veh ID3 (11757404_x_at) / RFU PLEKHG5 (11737974_s_at) / Fold change /veh PLEKHG5 (11737974_s_at) / RFU LRRC4B (11730491_at) / Fold change /veh LRRC4B (11730491_at) / RFU GIMAP4 (11747438_a_at) / Fold change /veh GIMAP4 (11747438_a_at) / RFU KRT8 (11758183_x_at) / Fold change /veh KRT8 (11758183_x_at) / RFU CNN1 (11734310_a_at) / Fold change /veh CNN1 (11734310_a_at) / RFU VPS37D (11726825_at) / Fold change /veh VPS37D (11726825_at) / RFU C10orf10 (11716522_x_at) / Fold change /veh C10orf10 (11716522_x_at) / RFU KIR2DL2 /// KIR2DL4 /// KIR2DL5A /// KIR2DL5B /// KIR2DS1 /// KIR2DS2 /// KIR2DS3 /// KIR2DS4 /// KIR3DL3 /// KIR3DL3 /// KIR3DS1 (11738374_at) / Fold change /veh KIR2DL2 /// KIR2DL4 /// KIR2DL5A /// KIR2DL5B /// KIR2DS1 /// KIR2DS2 /// KIR2DS3 /// KIR2DS4 /// KIR3DL3 /// KIR3DL3 /// KIR3DS1 (11738374_at) / RFU C1QL1 (11718748_at) / Fold change /veh C1QL1 (11718748_at) / RFU TMPRSS4 (11747572_a_at) / Fold change /veh TMPRSS4 (11747572_a_at) / RFU HAMP (11756126_x_at) / Fold change /veh HAMP (11756126_x_at) / RFU RNFT2 (11725882_a_at) / Fold change /veh RNFT2 (11725882_a_at) / RFU NR4A2 (11747474_a_at) / Fold change /veh NR4A2 (11747474_a_at) / RFU ABCC12 (11746883_a_at) / Fold change /veh ABCC12 (11746883_a_at) / RFU TMEM136 (11760407_x_at) / Fold change /veh TMEM136 (11760407_x_at) / RFU CLDN22 /// WWC2 (11732394_at) / Fold change /veh CLDN22 /// WWC2 (11732394_at) / RFU HLA-DPB1 (11760878_x_at) / Fold change /veh HLA-DPB1 (11760878_x_at) / RFU SPINT1 (11716480_a_at) / Fold change /veh SPINT1 (11716480_a_at) / RFU GAP43 (11754022_s_at) / Fold change /veh GAP43 (11754022_s_at) / RFU A4GNT (11735810_at) / Fold change /veh A4GNT (11735810_at) / RFU PRB3 (11715151_x_at) / Fold change /veh PRB3 (11715151_x_at) / RFU TUBB4B (11761932_at) / Fold change /veh TUBB4B (11761932_at) / RFU CAPN14 (11732068_a_at) / Fold change /veh CAPN14 (11732068_a_at) / RFU TMCC2 (11721928_a_at) / Fold change /veh TMCC2 (11721928_a_at) / RFU IRGQ (11745062_a_at) / Fold change /veh IRGQ (11745062_a_at) / RFU FAM174B (11720279_a_at) / Fold change /veh FAM174B (11720279_a_at) / RFU TMPRSS4 (11748680_a_at) / Fold change /veh TMPRSS4 (11748680_a_at) / RFU FAM212B (11763350_a_at) / Fold change /veh FAM212B (11763350_a_at) / RFU PLEKHG5 (11743358_a_at) / Fold change /veh PLEKHG5 (11743358_a_at) / RFU ZSCAN30 (11745921_a_at) / Fold change /veh ZSCAN30 (11745921_a_at) / RFU CMKLR1 (11741424_a_at) / Fold change /veh CMKLR1 (11741424_a_at) / RFU LOC101060620 /// MAPK8IP1 (11723275_at) / Fold change /veh LOC101060620 /// MAPK8IP1 (11723275_at) / RFU SPTSSB (11747773_x_at) / Fold change /veh SPTSSB (11747773_x_at) / RFU PRSS12 (11739890_at) / Fold change /veh PRSS12 (11739890_at) / RFU BIN1 (11741810_x_at) / Fold change /veh BIN1 (11741810_x_at) / RFU WNT11 (11732464_a_at) / Fold change /veh WNT11 (11732464_a_at) / RFU C10orf10 (11716521_a_at) / Fold change /veh C10orf10 (11716521_a_at) / RFU C5orf56 (11738089_at) / Fold change /veh C5orf56 (11738089_at) / RFU CYB561 (11721691_x_at) / Fold change /veh CYB561 (11721691_x_at) / RFU ANKRD19P (11752326_a_at) / Fold change /veh ANKRD19P (11752326_a_at) / RFU OR2T12 /// OR2T33 /// OR2T8 (11738714_s_at) / Fold change /veh OR2T12 /// OR2T33 /// OR2T8 (11738714_s_at) / RFU VCAN (11748164_a_at) / Fold change /veh VCAN (11748164_a_at) / RFU JSRP1 (11732532_at) / Fold change /veh JSRP1 (11732532_at) / RFU KRTAP10-11 (11738290_x_at) / Fold change /veh KRTAP10-11 (11738290_x_at) / RFU MYO3A (11730013_a_at) / Fold change /veh MYO3A (11730013_a_at) / RFU EBF3 (11725865_a_at) / Fold change /veh EBF3 (11725865_a_at) / RFU CAMK2N1 (11719241_x_at) / Fold change /veh CAMK2N1 (11719241_x_at) / RFU C5orf56 (11738088_a_at) / Fold change /veh C5orf56 (11738088_a_at) / RFU OLFML3 (11715873_a_at) / Fold change /veh OLFML3 (11715873_a_at) / RFU LOC100653217 /// NTM (11731650_a_at) / Fold change /veh LOC100653217 /// NTM (11731650_a_at) / RFU MAPK11 (11762145_a_at) / Fold change /veh MAPK11 (11762145_a_at) / RFU FIZ1 (11724087_x_at) / Fold change /veh FIZ1 (11724087_x_at) / RFU OASL (11726364_x_at) / Fold change /veh OASL (11726364_x_at) / RFU SOX15 (11748057_x_at) / Fold change /veh SOX15 (11748057_x_at) / RFU CD79A (11719716_a_at) / Fold change /veh CD79A (11719716_a_at) / RFU HIST1H1D (11736915_at) / Fold change /veh HIST1H1D (11736915_at) / RFU CASKIN2 (11723855_a_at) / Fold change /veh CASKIN2 (11723855_a_at) / RFU LOC730098 (11760151_x_at) / Fold change /veh LOC730098 (11760151_x_at) / RFU OR4N2 (11742367_at) / Fold change /veh OR4N2 (11742367_at) / RFU PRRT2 (11749266_a_at) / Fold change /veh PRRT2 (11749266_a_at) / RFU SNX32 (11753110_a_at) / Fold change /veh SNX32 (11753110_a_at) / RFU CDHR5 (11726645_a_at) / Fold change /veh CDHR5 (11726645_a_at) / RFU RCAN1 (11760418_a_at) / Fold change /veh RCAN1 (11760418_a_at) / RFU FAM167A (11723789_a_at) / Fold change /veh FAM167A (11723789_a_at) / RFU FAM26E (11764081_at) / Fold change /veh FAM26E (11764081_at) / RFU ISYNA1 (11749810_s_at) / Fold change /veh ISYNA1 (11749810_s_at) / RFU ACY1 (11761880_at) / Fold change /veh ACY1 (11761880_at) / RFU 11764098_at / Fold change /veh 11764098_at / RFU SAMD14 (11745864_x_at) / Fold change /veh SAMD14 (11745864_x_at) / RFU NPB (11741838_a_at) / Fold change /veh NPB (11741838_a_at) / RFU TMPRSS6 (11731388_a_at) / Fold change /veh TMPRSS6 (11731388_a_at) / RFU KRTAP10-2 (11738614_at) / Fold change /veh KRTAP10-2 (11738614_at) / RFU ARHGAP8 /// PRR5-ARHGAP8 (11727945_x_at) / Fold change /veh ARHGAP8 /// PRR5-ARHGAP8 (11727945_x_at) / RFU KRTAP5-7 /// NADSYN1 (11734609_at) / Fold change /veh KRTAP5-7 /// NADSYN1 (11734609_at) / RFU RASL12 (11751679_a_at) / Fold change /veh RASL12 (11751679_a_at) / RFU CDKN2B (11736163_a_at) / Fold change /veh CDKN2B (11736163_a_at) / RFU PRF1 (11729649_at) / Fold change /veh PRF1 (11729649_at) / RFU, ZNF638 /// ZNF638-IT1 / Fold change vs veh, ZNF638 /// ZNF638-IT1 / RFU, PANK3 / Fold change vs veh, PANK3 / RFU, SH3YL1 / Fold change vs veh, SH3YL1 / RFU, ZEB2 / Fold change vs veh, ZEB2 / RFU, NRIP1 / Fold change vs veh, NRIP1 / RFU, PTTG1IP / Fold change vs veh, PTTG1IP / RFU, CAPN2 / Fold change vs veh, CAPN2 / RFU, MED14 / Fold change vs veh, MED14 / RFU, SNORA58 / Fold change vs veh, SNORA58 / RFU, C1orf63 / Fold change vs veh, C1orf63 / RFU, LRRFIP1 / Fold change vs veh, LRRFIP1 / RFU, NDUFAF7 / Fold change vs veh, NDUFAF7 / RFU, SLC12A2 / Fold change vs veh, SLC12A2 / RFU, IBTK / Fold change vs veh, IBTK / RFU, ESF1 / Fold change vs veh, ESF1 / Fold change vs veh, TMEM50B / RFU, TAOK1 / Fold change vs veh, TAOK1 / RFU, ACBD3 / Fold change vs veh, ACBD3 / RFU, TMA16 / Fold change vs veh, TMA16 / RFU, RWDD3 / Fold change vs veh, RWDD3 / RFU, BCAT1 / Fold change vs veh, BCAT1 / RFU, EDEM3 / Fold change vs veh, EDEM3 / RFU, TMEM33 / Fold change vs veh, TMEM33 / RFU, WDR75 / Fold change vs veh, WDR75 / RFU, AHCTF1 / Fold change vs veh, AHCTF1 / RFU, TFRC / Fold change vs veh, TFRC / RFU, ZDHHC17 / Fold change vs veh, ZDHHC17 / RFU, NOM1 / Fold change vs veh, NOM1 / RFU, ARL8B / Fold change vs veh, ARL8B / RFU, ZBTB11 / Fold change vs veh, ZBTB11 / RFU, TAMM41 / Fold change vs veh, TAMM41 / RFU, KIAA1704 /// LOC100996395 / Fold change vs veh, KIAA1704 /// LOC100996395 / RFU, ING1 / Fold change vs veh, ING1 / RFU, TRMT61B / Fold change vs veh, TRMT61B / RFU, FUBP3 / Fold change vs veh, FUBP3 / RFU, TP53 / Fold change vs veh, TP53 / RFU, TNKS2 / Fold change vs veh, TNKS2 / RFU, ZFP14 / Fold change vs veh, ZFP14 / RFU, ACTR2 / Fold change vs veh, ACTR2 / RFU, PPP3R1 / Fold change vs veh, PPP3R1 / RFU, PIK3R1 / Fold change vs veh, PIK3R1 / RFU, HNRNPA1 / Fold change vs veh, HNRNPA1 / RFU, RNF170 / Fold change vs veh, RNF170 / RFU, ZNF28 / Fold change vs veh, ZNF28 / RFU, RNGTT / Fold change vs veh, RNGTT / RFU, OGT / Fold change vs veh, OGT / RFU, BRD1 / Fold change vs veh, BRD1 / RFU, MARS / Fold change vs veh, MARS / RFU, ZNF655 / Fold change vs veh, ZNF655 / RFU, FAHD1 / Fold change vs veh, FAHD1 / RFU, BDP1 / Fold change vs veh, BDP1 / RFU, LRRCC1 / Fold change vs veh, LRRCC1 / RFU, ARID1A / Fold change vs veh, ARID1A / RFU, ZNF146 / Fold change vs veh, ZNF146 / RFU, ZNF330 / Fold change vs veh, ZNF330 / RFU, GPN3 / Fold change vs veh, GPN3 / RFU, C9orf123 / Fold change vs veh, C9orf123 / RFU, N4BP2L2 / Fold change vs veh, N4BP2L2 / RFU, ARFIP1 / Fold change vs veh, ARFIP1 / RFU, FAM179B / Fold change vs veh, FAM179B / RFU, BCL10 / Fold change vs veh, BCL10 / RFU, UHRF1BP1L / Fold change vs veh, UHRF1BP1L / RFU, BET1 / Fold change vs veh, BET1 / RFU, CNOT2 / Fold change vs veh, CNOT2 / RFU, ZNF268 / Fold change vs veh, ZNF268 / Fold change vs veh, ZNF507 / RFU, DGCR2 / Fold change vs veh, DGCR2 / RFU, WDSUB1 / Fold change vs veh, WDSUB1 / Fold change vs veh, HSP90B1 /// MIR3652 / RFU, ADSS / Fold change vs veh, ADSS / RFU, GK / Fold change vs veh, GK / RFU, ZNF148 / Fold change vs veh, ZNF148 / RFU, TAF9 / Fold change vs veh, TAF9 / RFU, SLC1A5 / Fold change vs veh, SLC1A5 / RFU, SLMO2 / Fold change vs veh, SLMO2 / RFU, ABCC4 / Fold change vs veh, ABCC4 / RFU, LOC101060439 /// RAP1B / Fold change vs veh, LOC101060439 /// RAP1B / RFU, RFX7 / Fold change vs veh, RFX7 / RFU, GTPBP10 / Fold change vs veh, GTPBP10 / RFU, CNEP1R1 / Fold change vs veh, CNEP1R1 / RFU, BIVM-ERCC5 /// ERCC5 / Fold change vs veh, BIVM-ERCC5 /// ERCC5 / RFU, ILF3 / Fold change vs veh, ILF3 / RFU 11762660_at / Fold change /veh 11762660_at / RFU VCAN (11757783_s_at) / Fold change /veh VCAN (11757783_s_at) / RFU DDX43 (11728927_at) / Fold change /veh DDX43 (11728927_at) / RFU KRT8 (11758188_x_at) / Fold change /veh KRT8 (11758188_x_at) / RFU NKD1 (11759106_at) / Fold change /veh NKD1 (11759106_at) / RFU SRD5A1 (11742802_a_at) / Fold change /veh SRD5A1 (11742802_a_at) / RFU TPSAB1 /// TPSB2 (11721975_s_at) / Fold change /veh TPSAB1 /// TPSB2 (11721975_s_at) / RFU GSTM3 (11746129_a_at) / Fold change /veh GSTM3 (11746129_a_at) / RFU IL23R (11737362_x_at) / Fold change /veh IL23R (11737362_x_at) / RFU TMEM51 (11727254_a_at) / Fold change /veh TMEM51 (11727254_a_at) / RFU PIWIL2 (11732686_x_at) / Fold change /veh PIWIL2 (11732686_x_at) / RFU ORM1 (11744905_x_at) / Fold change /veh ORM1 (11744905_x_at) / RFU CCDC152 (11743942_at) / Fold change /veh CCDC152 (11743942_at) / RFU ECM1 (11717891_a_at) / Fold change /veh ECM1 (11717891_a_at) / RFU IL23R (11748794_a_at) / Fold change /veh IL23R (11748794_a_at) / RFU TNFAIP8L3 (11732012_x_at) / Fold change /veh TNFAIP8L3 (11732012_x_at) / RFU MBOAT4 (11741988_at) / Fold change /veh MBOAT4 (11741988_at) / RFU 11764193_at / Fold change /veh 11764193_at / RFU TMEM53 (11763286_at) / Fold change /veh TMEM53 (11763286_at) / RFU MAGEB2 (11727129_at) / Fold change /veh MAGEB2 (11727129_at) / RFU TMEM200A (11744735_a_at) / Fold change /veh TMEM200A (11744735_a_at) / RFU CCDC152 (11751479_a_at) / Fold change /veh CCDC152 (11751479_a_at) / RFU FAM211A (11726209_a_at) / Fold change /veh FAM211A (11726209_a_at) / RFU RGS16 (11746705_a_at) / Fold change /veh RGS16 (11746705_a_at) / RFU VCAN (11755009_s_at) / Fold change /veh VCAN (11755009_s_at) / RFU RHOB (11743442_s_at) / Fold change /veh RHOB (11743442_s_at) / RFU RGS16 (11720943_a_at) / Fold change /veh RGS16 (11720943_a_at) / RFU RGS16 (11720944_at) / Fold change /veh RGS16 (11720944_at) / RFU, VPS4B / Fold change vs veh, VPS4B / RFU, CREB1 / Fold change vs veh, CREB1 / RFU, DNAJC13 / Fold change vs veh, DNAJC13 / RFU, GNAQ / Fold change vs veh, GNAQ / RFU, CDK5R1 / Fold change vs veh, CDK5R1 / RFU, ZRANB3 / Fold change vs veh, ZRANB3 / RFU, CUL4A / Fold change vs veh, CUL4A / RFU, CCNY / Fold change vs veh, CCNY / RFU, UFL1 / Fold change vs veh, UFL1 / RFU, COG3 / Fold change vs veh, COG3 / RFU, DIAPH2 / Fold change vs veh, DIAPH2 / RFU, SKA2 / Fold change vs veh, SKA2 / RFU, AFF3 / Fold change vs veh, AFF3 / RFU, LMF1 / Fold change vs veh, LMF1 / RFU, IPO11 / Fold change vs veh, IPO11 / RFU, DFFB / Fold change vs veh, DFFB / RFU, FOXP1 / Fold change vs veh, FOXP1 / RFU, CARD8 / Fold change vs veh, CARD8 / RFU, STRN3 / Fold change vs veh, STRN3 / RFU, ADK / Fold change vs veh, ADK / RFU, RASSF2 / Fold change vs veh, RASSF2 / RFU, WIPF1 / Fold change vs veh, WIPF1 / RFU, LARP1B / Fold change vs veh, LARP1B / RFU, RASA1 / Fold change vs veh, RASA1 / RFU, RB1 / Fold change vs veh, RB1 / RFU, PPFIA1 / Fold change vs veh, PPFIA1 / RFU, MAT2A / Fold change vs veh, MAT2A / RFU, CCT5 / Fold change vs veh, CCT5 / RFU, WDR92 / Fold change vs veh, WDR92 / RFU, CUX1 / Fold change vs veh, CUX1 / RFU, TTC7A / Fold change vs veh, TTC7A / RFU, TMEM135 / Fold change vs veh, TMEM135 / RFU, DEPTOR / Fold change vs veh, DEPTOR / RFU, CPM / Fold change vs veh, CPM / RFU, DNAJB6 / Fold change vs veh, DNAJB6 / RFU, CACNA2D3 / Fold change vs veh, CACNA2D3 / RFU, DTX4 / Fold change vs veh, DTX4 / RFU, TFCP2 / Fold change vs veh, TFCP2 / RFU, GMCL1 /// GMCL1P1 / Fold change vs veh, GMCL1 /// GMCL1P1 / RFU, AEBP2 / Fold change vs veh, AEBP2 / RFU, SNHG1 /// SNORD22 /// SNORD25 /// SNORD26 /// SNORD27 /// SNORD28 /// SNORD29 /// SNORD31 / Fold change vs veh, SNHG1 /// SNORD22 /// SNORD25 /// SNORD26 /// SNORD27 /// SNORD28 /// SNORD29 /// SNORD31 / Fold change (Aza/veh), C12orf56 (ProbeSet 11735607_a_at) / Fold change (ACY-1035/veh), C12orf56 (ProbeSet 11735607_a_at) / Fold change (Aza/veh), FGFR1OP (ProbeSet 11751329_s_at) / Fold change (ACY-1035/veh), FGFR1OP (ProbeSet 11751329_s_at) / Fold change (Aza/veh), VPS36 (ProbeSet 11739960_a_at) / Fold change (ACY-1035/veh), VPS36 (ProbeSet 11739960_a_at) / RFU SYPL1 (11715823_x_at) / Fold change /veh SYPL1 (11715823_x_at) / RFU IGFBP7 (11715501_s_at) / Fold change /veh IGFBP7 (11715501_s_at) / RFU REEP3 (11722064_at) / Fold change /veh REEP3 (11722064_at) / RFU IGLL1 (11728026_x_at) / Fold change /veh IGLL1 (11728026_x_at): dose or concentration left out as unconfirmed. Particulars: ProbeSet 11725217_a_at; LIST B.

Consider `Nc1ncn([C@@H]2O[C@H](CO)[C@@H](O)[C@H]2O)c(=O)n1` [azacitidine], for which the “RFU, WDSUB1” value is reported as 50.65 RFU.
